PubChem BioAssay AID1996
In brackets after ≈: the same amount, converted by molar mass.

settings: buffer; pH 7.4; 200.0 µM

Row | SMILES | solubility kinetic [µg/mL]
1 | Cl.c1cncc(CNCCc2c[nH]c3ccccc23)c1 | 38.5
2 | O=S(=O)(NCCc1csc(-c2ccccc2)n1)c1cccnc1 | > 51.8
3 | O=C(c1ccccc1)N1CCN(C(=O)c2ccc3c(c2)OCO3)CC1 | > 50.8
4 | O=C(NCCC(=O)N1CCN(C(=O)c2ccco2)CC1)c1ccccc1Cl | > 58.5
5 | CCC(C)[C@H](NC(=O)N1CCC(C)CC1)C(=O)O (some centres undefined) | > 38.5
6 | CN(C)c1ccc(C(=O)NC2(N3CCC3=O)CCCC2)cc1 | > 45.2
7 | CC1CN(C(=S)Nc2ccc(S(N)(=O)=O)cc2)CC(C)O1 (centres undefined) | > 49.4
8 | COc1ccc(C(=O)c2nc3ccccc3n2C(C)C)cc1 | 22.3 (≈ 75.8 µM)
9 | O=C1CCC(=O)N1Cc1c(Cl)cccc1Cl | 35.5 (≈ 138 µM)
10 | CCC1(C)Cc2c(sc3nc(SC)[nH]c(=O)c23)CO1 (centres undefined) | 7.9 (≈ 26.7 µM)
11 | O=C(Nc1nccs1)c1c(O)c2c(n(Cc3ccco3)c1=O)CCCC2 | < 0.3
12 | O=C(Nc1nccs1)c1ccc(Cl)nc1 | > 36
13 | O=C(NCCc1ccc(Cl)cc1)c1cnccn1 | > 39.3
14 | CC(=O)c1ccc(S(=O)(=O)N2CCCCC2C(=O)O)cc1 (centres undefined) | 45.9 (≈ 147 µM)
15 | Cc1cc(C(F)(F)F)nc(SCC(=O)NC2CCCCC2)n1 | 33.2 (≈ 99.6 µM)
16 | O=C1C2C3C=CC(C2C(=O)N1CCO)C1C(=O)N(CCO)C(=O)C31 (centres undefined) | > 50.1

Row | SMILES | solubility kinetic [µg/mL]
17 | Cc1cccc(NC(=S)NC23CN4CN(CN(C4)C2)C3)c1C | 46.8 (≈ 147 µM)
18 | COC(=O)c1ccc(COc2ncnc3sccc23)cc1 | 17 (≈ 56.6 µM)
19 | CCCc1nnc(SCC(=O)NC2CC2)n1CC | > 40.3
20 | Cn1c(=O)[nH]c2nc[nH]c2c1=O | > 24.9
21 | N#CC1CCCc2c1[nH]c1ccc([N+](=O)[O-])cc21 (centres undefined) | 20.8 (≈ 86.2 µM)
22 | O=C(NC(=S)Nc1ccc(Br)cc1F)C1CCCCC1 | 0.9 (≈ 2.51 µM)
23 | Cl.Fc1ccc(Nc2nc(NCc3ccco3)c3ccccc3n2)cc1 | 2.1
24 | S=C(c1ccc(-c2ccc(Br)cc2)o1)N1CCOCC1 | < 0.8
25 | Cc1nc2ccc(NC(=O)c3cc(Cl)ccn3)cc2s1 | 4.9 (≈ 16.1 µM)
26 | NC(=O)c1cc2c(s1)-c1cc(Cl)ccc1SC2 | 0.8 (≈ 2.84 µM)
27 | Cc1ccc2nc(N3CCCCC3)c(C=O)c(=O)n2c1 | 39.1 (≈ 144 µM)
28 | S=C(NC1CC1)NC1CCCc2ccccc21 (centres undefined) | > 37
29 | CC(=O)Nc1ccc(NC(=O)c2cccc(S(=O)(=O)N3CCCCCC3)c2)cc1 | 5.3 (≈ 12.8 µM)
30 | O=c1c(Cc2c(F)cccc2Cl)c(O)ccn1C1CCCCCC1 | < 0.7
31 | COc1ccc2cc(C(=O)C3CCCN(Cc4cccc(C)n4)C3)ccc2c1 (centres undefined) | 37.7 (≈ 101 µM)

Second part, the compound after the results:

Row | solubility kinetic [µg/mL] | SMILES
32 | 43.8 | Cc1cc(C)c[n+](CC(=O)c2ccccc2)c1.[Br-]
33 | 40 (≈ 131 µM) | COC(=O)c1sccc1NC(=O)Nc1ccccc1OC
34 | 21 (≈ 54.2 µM) | O=C(COC(=O)c1ccc([N+](=O)[O-])o1)Nc1ccc(Br)cc1F
35 | 20.6 (≈ 81.7 µM) | CC(C)(C)/C(COc1ccccc1[N+](=O)[O-])=N/O
36 | > 51.7 | CCOC(=O)C1CCCN(C(=O)c2[nH]c3ccc(OC)cc3c2C)C1 (centres undefined)
37 | 7.7 (≈ 32.7 µM) | CCc1c(C)nc2c(OC)cccc2c1Cl
38 | 31.1 | CC(CCc1ccccc1)NCC#N.Cl (centres undefined)
39 | 7.7 (≈ 22.1 µM) | COCCN(C(=S)Nc1ccc(C)cc1C)C(C)c1cccs1 (centres undefined)
40 | 0.4 (≈ 1.36 µM) | CC(C)CCn1c2ccccc2c2cc(CC(N)=O)ccc21
41 | 1.2 (≈ 3.98 µM) | O=C(NC(=S)Nc1cccc([N+](=O)[O-])c1)c1ccccc1
42 | > 49.3 | CC(=O)NCCc1ccc(C(=O)COC(=O)c2cccn2C)cc1
43 | < 0.3 | CCOC(=O)c1cc2c(ccc3nc(C)c(C)c32)[nH]c1C
44 | > 52.7 | CN(C)C(CNC(=O)CSC(=S)N1CCCC1)c1ccccc1 (centres undefined)
45 | < 0.7 | CC(=O)c1ccc([N+](=O)[O-])c(CS(=O)(=O)c2ccccc2)c1
46 | 4.1 (≈ 12.9 µM) | Cc1ccc(NC(=O)C(C)OC(=O)CCC2CCCCC2)cc1 (centres undefined)
47 | 9.8 (≈ 39.5 µM) | Cc1cccc(NCc2cccc3ccccc23)n1
48 | 3.5 (≈ 9.06 µM) | O=C(COC(=O)c1cccc([N+](=O)[O-])c1)Nc1ncc(Br)s1
49 | > 42.6 | Cc1cccc(C(=O)OC(C)CN2CCCC2)c1.Cl (centres undefined)
50 | 39.9 (≈ 135 µM) | NC(=O)COC(=O)c1cc(-c2ccco2)nc2ccccc12
51 | 58.5 (≈ 137 µM) | COc1cc(OC)cc(C(=O)NCC(=O)OCC(=O)NC2CCCc3ccccc32)c1 (centres undefined)
52 | > 46.7 | CC(C)C(=O)Nc1ccc(NC(=O)CCc2ccccc2)cn1
53 | 6.3 (≈ 18.5 µM) | O=C(C1CC1)N1CCN(c2ccc([N+](=O)[O-])cc2-n2cccc2)CC1
54 | 18 (≈ 36.5 µM) | CN(C(=O)COC(=O)C1CCN(S(=O)(=O)c2ccc(Cl)cc2)CC1)C1CCS(=O)(=O)C1 (centres undefined)
55 | 42.8 (≈ 144 µM) | CC(C)N(Cc1ccccc1)C(=O)c1ccc2c(c1)OCO2
56 | 0.9 (≈ 2.85 µM) | CCOCc1c(C(=O)NC2CCCCCC2)oc2ccccc12
57 | > 41.7 | COc1ccc(S(=O)(=O)Nc2ccccn2)cc1C
58 | > 42.8 | Cc1nc2ccccn2c1C(=O)NN=C1CCN(C)CC1
59 | > 43.3 | Cc1ccc(C)c(NC(=O)CN(C)C(=O)C2CCCC2)c1
